Reference: ChEMBL document CHEMBL1201862, “PubChem BioAssay data set” (2004)
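Protocol summary: plate cells (96-well), add compound at 5 concentrations, incubate 48 h, interpolate endpoints linearly. GI50 = concentration required for 50% inhibition of growth.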 The source made the active and inactive calls. No stated cut-off is given here; in the data, active = GI50 up to about 1.1 µM and inactive = higher.

Legend:
Experiment in all cases: growth of human tumour cells (NCI), 48 h
SN12C = tested on: SN12C
M14 = tested on: M14
OVCAR-3 = tested on: OVCAR-3
HCC 2998 = tested on: HCC 2998
SW-620 = tested on: SW-620
HCT-116 = tested on: HCT-116
OVCAR-8 = tested on: OVCAR-8
SF-539 = tested on: SF-539
EKVX = tested on: EKVX
RXF 393 = tested on: RXF 393
786-0 = tested on: 786-0
NCI-H460 = tested on: NCI-H460
SF-268 = tested on: SF-268
NCI-H522 = tested on: NCI-H522
TK-10 = tested on: TK-10
SR = tested on: SR

Measured: GI50

CC(C)CCC[C@@H](C)C1CCC2[C@@H]3CC=C4C[C@@H](OC(=O)CCC(=O)NCC[N+](C)(C)CCCS(=O)(=O)[O-])CC[C@]4(C)C3CC[C@@]21C (some centres undefined)
inactive: SN12C 19.5 µM | M14 19.7 µM | OVCAR-3 17.9 µM | HCC 2998 20.6 µM | SW-620 17.7 µM | HCT-116 23.1 µM | OVCAR-8 18.6 µM | SF-539 16.7 µM | EKVX 29.2 µM | RXF 393 11.3 µM | 786-0 25.8 µM | NCI-H460 15.2 µM | SF-268 19.3 µM | NCI-H522 26.2 µM

Cc1c(C(=O)CSc2nc3ccccc3c(=O)n2-c2ccccc2)c(=O)n(-c2ccccc2)n1C
inactive: SN12C 97.7 µM | M14 94.2 µM | OVCAR-3 27.6 µM | HCC 2998 > 100 µM | TK-10 41.9 µM | SR 82.2 µM | SW-620 > 100 µM | HCT-116 68.2 µM | SF-539 63.2 µM | 786-0 19.9 µM | NCI-H460 37.8 µM | SF-268 > 100 µM | NCI-H522 27.2 µM

NNC(=O)CNC(=O)c1ccc(Cl)cc1Cl
inactive: SN12C > 100 µM | M14 > 100 µM | OVCAR-3 > 100 µM | HCC 2998 > 100 µM | TK-10 > 100 µM | SW-620 15.8 µM | HCT-116 39.4 µM | OVCAR-8 > 100 µM | SF-539 > 100 µM | EKVX > 100 µM | 786-0 39.8 µM | NCI-H460 > 100 µM | SF-268 > 100 µM | NCI-H522 > 100 µM

CC(=O)OC1CC2Oc3ccc(C)cc3C(C)(O2)C1=O (centres undefined)
inactive: SN12C > 100 µM | M14 > 100 µM | OVCAR-3 > 100 µM | TK-10 > 100 µM | SW-620 > 100 µM | HCT-116 > 100 µM | OVCAR-8 > 100 µM | SF-539 > 100 µM | EKVX > 100 µM | RXF 393 > 100 µM | 786-0 > 100 µM | NCI-H460 > 100 µM | NCI-H522 > 100 µM

COC1(OC)CCC2C1C1CCC(OC)(OC)C21 (centres undefined)
inactive: SN12C > 50 µM | M14 > 50 µM | OVCAR-3 > 50 µM | HCC 2998 > 50 µM | SW-620 > 50 µM | HCT-116 > 50 µM | OVCAR-8 > 50 µM | SF-539 > 50 µM | EKVX > 50 µM | RXF 393 > 50 µM | 786-0 > 50 µM | SF-268 > 50 µM | NCI-H522 > 50 µM

CCc1nnc(S)n1/N=C/c1ccc(-c2ccc([N+](=O)[O-])cc2)o1
inactive: SN12C > 100 µM | M14 > 100 µM | OVCAR-3 > 100 µM | HCC 2998 > 100 µM | TK-10 > 100 µM | SR > 100 µM | SW-620 > 100 µM | HCT-116 > 100 µM | OVCAR-8 > 100 µM | SF-539 > 100 µM | 786-0 > 100 µM | NCI-H460 > 100 µM | SF-268 > 100 µM | NCI-H522 > 100 µM

COC12CCC(C(C(=O)c3ccccc3)=C1C(=O)c1ccccc1)C(O)C2 (centres undefined)
inactive: SN12C > 100 µM | M14 > 100 µM | OVCAR-3 > 100 µM | HCC 2998 > 100 µM | TK-10 > 100 µM | SR > 100 µM | SW-620 > 100 µM | HCT-116 > 100 µM | OVCAR-8 > 100 µM | SF-539 > 100 µM | EKVX > 100 µM | 786-0 > 100 µM | SF-268 > 100 µM | NCI-H522 > 100 µM

O=C(OC1CC(n2cc(F)c(=O)[nH]c2=O)OC1CSC(=O)c1ccccc1)c1ccccc1 (centres undefined)
inactive: SN12C 28.1 µM | M14 28.1 µM | OVCAR-3 23.4 µM | HCC 2998 4.85 µM | TK-10 > 100 µM | SW-620 30.8 µM | HCT-116 34.8 µM | OVCAR-8 34.8 µM | SF-539 36.5 µM | EKVX 33.3 µM | RXF 393 27.3 µM | 786-0 32.1 µM | NCI-H460 35.3 µM | SF-268 25.4 µM | NCI-H522 19.5 µM

CCCCN(CCCC)C(=O)C(=O)CC(=O)c1ccc(Br)cc1
inactive: SN12C > 100 µM | M14 > 100 µM | OVCAR-3 > 100 µM | HCC 2998 > 100 µM | TK-10 > 100 µM | SW-620 > 100 µM | HCT-116 > 100 µM | OVCAR-8 > 100 µM | SF-539 > 100 µM | EKVX > 100 µM | 786-0 > 100 µM | NCI-H460 > 100 µM | SF-268 > 100 µM | NCI-H522 > 100 µM

C[N+](C)(C)CCC(=O)CC[N+](C)(C)C
inactive: SN12C > 10 µM | M14 18.3 µM | OVCAR-3 18.6 µM | HCC 2998 16.2 µM | TK-10 17 µM | SW-620 16.1 µM | HCT-116 18.4 µM | OVCAR-8 19.8 µM | SF-539 19.8 µM | EKVX 55.3 µM | RXF 393 21.3 µM | 786-0 18.9 µM | NCI-H460 28.2 µM | SF-268 22.1 µM | NCI-H522 15.4 µM
